Laboratory results reported in US9394261B2, “Aryl amine substituted pyrimidine and quinazoline and their use as anticancer drugs” (National Yang-Ming University, priority 2012, dated 2016).

Experiments:
Assay type in all cases: cell-based
[1] = tested on: SK-Hep-1 cell lines (a hepatocellular carcinoma (HCC) cell); assay: MTT assay, growth inhibition of SK-Hep-1 cells; settings: for IC50: SK-Hep-1 cells, 48 hours; for growth-inhibitory activity (MTT), in words: SK-Hep-1 (HCC) cells
Method: MTT assay was used to measure growth inhibition. […] MTT (3-(4,5-dimethylthiazol-2-yl)-2,5-diphenyl tetrazolium bromide) assay was performed as follow.
(§1) The effect of individual test compounds on cell viability was assessed by using the MTT in 6 replicates. Sk-Hep-1 cells were seeded and incubated in 96-well, flat-bottomed plates for 24 hours, and were exposed to various concentrations of test compounds dissolved in DMSO (final concentration, 0.1%) for 48 hours. Controls received DMSO vehicle at a concentration equal to that in drug-treated cells. The medium was removed, replaced by 200 μL of 0.5 mg/mL MTT in 10% fetal bovine serum containing DMEM (Dulbecco's Modified Eagle Medium), and cells were incubated in the carbon dioxide incubator at 37° C. for 2 hours. Supernatants were removed from the wells and the reduced MTT dye was solubilized in 100 μL/well DMSO. Absorbance at 570 nm was determined on a plate reader.
The SK-Hep1 cells were then analyzed with western blot assay and MTT assay.

[2] = tested on: PLC5 cell lines; assay: MTT assay, growth inhibition of PLC5 cells; settings: PLC5, PLC5 cells
Method: as §1
(§2) Next, compounds 19, and 34-36 were screened against a panel of Hep3B cell lines for growth-inhibitory activities. […] Compounds 87-90, 95 and 96 were screened against a panel of PLC5 cell lines for growth-inhibitory activities.

[3] = tested on: Hep3B cell lines; assay: MTT assay, growth inhibition of Hep3B cells; settings: Homo sapiens
Method: as §1, §2

Compound	IC50 ([1]; Homo sapiens, SK-HEP1, 48 h)	other results
C#Cc1cccc(N(C)c2nc(Cl)nc3cc(OC)c(OC)cc23)c1 [Compound 9, 2-Chloro-N-(3-ethynylphenyl)-6,7-dimethoxy-N-methyl quinazoline-4-amine]	10 to 20 µM	IC50 [1]: 12.3 ± 0.6 µM
Clc1nccc(NCc2ccccc2)n1 [Compound 5, N-Benzyl-2-chloropyrimidin-4-amine]	> 40 µM	–
COc1cc2nc(Cl)nc(NCc3ccccc3)c2cc1OC [Compound 17, N-Benzyl-2-chloro-6,7-dimethoxyquinazoline-4-amine]	10 to 20 µM	–
COc1cc2nc(Cl)nc(Nc3cccc(Oc4ccc(C#N)cc4)c3)c2cc1OC [Compound 16, 4-(3-(2-Chloro-6,7-dimethoxyquinazoline-4-ylamino)phenoxy)benzonitrile]	> 40 µM	–
C#Cc1cccc(Nc2nc(Nc3ccc(Oc4ccc(Cl)c(Cl)c4)cc3)nc3cc(OC)c(OC)cc23)c1 [Compound 90, N^2-(4-(3,4-dichlorophenoxyl)phenyl)-N^4-(3-ethynylphenyl)-6,7-dimethoxyquinazoline-2,4-diamine]	–	IC50 [2]: 0.77 µM
C#Cc1cccc(Nc2nc(Nc3ccc(Oc4ccc(Cl)cc4)cc3)nc3cc(OC)c(OC)cc23)c1 [Compound 96, N^2-(4-(4-chlorophenoxyl)phenyl)-N^4-(3-ethynylphenyl)-6,7-dimethoxyquinazoline-2,4-diamine]	–	IC50 [2]: 0.61 µM
C#Cc1cccc(Nc2nc(Nc3cccc(NS(=O)(=O)c4cccc(C(F)(F)F)c4)c3)nc3cc(OC)c(OC)cc23)c1 [Compound 31, N-(3-(4-(3-Ethynylphenylamino)-6,7-dimethoxyquinazolin-2-ylamino)phenyl)-3-(trifluoromethyl)benzenesulfonamide]	–	IC50 [1]: 1.95 µM
C#Cc1cccc(Nc2nc(Nc3cccc(C#C)c3)c3cc(OC)c(OC)cc3n2)c1 [Compound 25, N^2,N^4-Bis(3-ethynylphenyl)-6,7-dimethoxyquinazoline-2,4-diamine]	< 10 µM	–
C#Cc1cccc(Nc2nc(Nc3cccc(NC(=O)c4ccccc4)c3)nc3cc(OC)c(OC)cc23)c1 [Compound 33, N-(3-(4-(3-ethynylphenylamino)-6,7-dimethoxyquinazolin-2-ylamino)phenyl)benzamide]	–	IC50 [1]: 2.65 µM
COc1cc2nc(Cl)nc(Nc3cccc(O)c3)c2cc1OC [Compound 11, 3-(2-Chloro-6,7-dimethoxyquinazoline-4-ylamino)phenol]	> 40 µM	–
C#Cc1cccc(Nc2nc(Nc3cccc(Oc4ccc(C#N)cc4)c3)nc3cc(OC)c(OC)cc23)c1 [Compound 23, 4-(3-(4-(3-Ethynylphenylamino)-6,7-dimethoxyquinazolin-2-ylamino)phenoxy)benzonitrile]	–	IC50 [1]: 3.9 µM
COc1cc2nc(Cl)nc(Nc3ccc(O)cc3C)c2cc1OC [Compound 15, 4-(2-Chloro-6,7-dimethoxyquinazoline-4-ylamino)-3-methylphenol]	> 40 µM	–
C#Cc1cccc(Nc2nc(Nc3ccc(Oc4ccc(C#N)cc4)cc3)nc3cc(OC)c(OC)cc23)c1 [Compound 24, 4-(4-(4-(3-Ethynylphenylamino)-6,7-dimethoxyquinazolin-2-ylamino)phenoxy)benzonitrile]	10 to 20 µM	IC50 [1]: 14.5 µM
C#Cc1cccc(Nc2nc(Nc3ccc(Cl)c(Oc4ccc(C#N)cc4)c3)nc3cc(OC)c(OC)cc23)c1 [Compound 87, 4-(2-chloro-5-((4-((3-ethynylphenyl)amino)-6,7-dimethoxyquinazolin-2-yl)amino)phenoxy)benzonitrile]	–	IC50 [2]: 8.2 µM
C#Cc1cccc(Nc2nc(Nc3cccc(NS(=O)(=O)c4ccccc4)c3)nc3cc(OC)c(OC)cc23)c1 [Compound 30, N-(3-(4-(3-ethynylphenylamino)-6,7-dimethoxyquinazolin-2-ylamino)phenyl)benzenesulfonamide]	< 10 µM	–
C#Cc1cccc(Nc2nc(Nc3cccc(CC)c3)nc3cc(OC)c(OC)cc23)c1 [Compound 26, N^2-(3-ethylphenyl)-N^4-(3-ethynylphenyl)-6,7-dimethoxy quinazoline-2,4-diamine]	< 10 µM	–
COc1cc2nc(Cl)nc(Nc3cccc(Cl)c3)c2cc1OC [Compound 10, 2-Chloro-N-(3-chlorophenyl)-6,7-dimethoxyquinazoline-4-amine]	10 to 20 µM	–
C#Cc1cccc(Nc2nc(Nc3cccc(NC(=O)c4cc(C(F)(F)F)cc(C(F)(F)F)c4)c3)nc3cc(OC)c(OC)cc23)c1 [Compound 35, N-(3-(4-(3-ethynylphenylamino)-6,7-dimethoxyquinazolin-2-ylamino)phenyl)-3,5-bis(trifluoromethyl)benzamide]	–	IC50 [3]: 3.27 µM
C#Cc1cccc(Nc2nc(Nc3cccc(NC(=O)c4cccc(C(F)(F)F)c4)c3)nc3cc(OC)c(OC)cc23)c1 [Compound 36, N-(3-(4-(3-ethynylphenylamino)-6,7-dimethoxyquinazolin-2-ylamino)phenyl)-3-(trifluoromethyl)benzamide]	–	IC50 [3]: 3.38 µM
C#Cc1cccc(Nc2nc(Nc3ccc(Cl)c(Oc4ccc(C#N)c(C)c4)c3)nc3cc(OC)c(OC)cc23)c1 [Compound 89, 4-(2-chloro-5-((4-((3-ethynylphenyl)amino)-6,7-dimethoxyquinazolin-2-yl)amino)phenoxy)-2-methylbenzonitrile]	–	IC50 [2]: 20.2 µM
C#Cc1cccc(Nc2nc(NCc3cccc(OC(F)(F)F)c3)nc3cc(OC)c(OC)cc23)c1 [Compound 28, N^4-(3-Ethynylphenyl)-6,7-dimethoxy-N^2-(3-(trifluoromethoxy)benzyl)quinazoline-2,4-diamine]	–	IC50 [1]: 2.55 µM
C#Cc1cccc(Nc2nc(NCc3ccc(Cl)c(C(F)(F)F)c3)nc3cc(OC)c(OC)cc23)c1 [Compound 27, N^2-(4-Chloro-3-(trifluoromethyl)benzyl)-N^4-(3-ethynylphenyl)-6,7-dimethoxyquinazoline-2,4-diamine]	–	IC50 [1]: 2.6 µM
C#Cc1cccc(Nc2nc(Nc3cccc(NCc4ccccc4)c3)nc3cc(OC)c(OC)cc23)c1 [Compound 34, N^2-(3-(benzylamino)phenyl)-N^4-(3-ethynylphenyl)-6,7-dimethoxyquinazoline-2,4-diamine]	–	IC50 [3]: 3.35 µM
COc1cc2nc(Cl)nc(Nc3cc(C)ccc3F)c2cc1OC [Compound 12, 2-Chloro-N-(2-fluoro-5-methylphenyl)-6,7-dimethoxy quinazoline-4-amine]	> 40 µM	–
C#Cc1cccc(Nc2nc(NCc3ccc(OC)c(OC)c3)nc3cc(OC)c(OC)cc23)c1 [Compound 29, N^2-(3,4-dimethoxybenzyl)-N^4-(3-ethynylphenyl)-6,7-dimethoxyquinazoline-2,4-diamine]	< 10 µM	–

More lines, main results first:

IC50 ([1]; Homo sapiens, SK-HEP1, 48 h)	Compound	other results
> 40 µM	C#Cc1cccc(Nc2ccnc(Cl)n2)c1 [Compound 1, 2-Chloro-N-(3-ethynylphenyl)pyrimidin-4-amine]	–
> 40 µM	FC(F)(F)c1cc(Nc2ccnc(Cl)n2)ccc1Cl [Compound 3, 2-Chloro-N-(4-chloro-3-(trifluoromethyl)phenyl)pyrimidin-4-amine]	–
> 40 µM	Clc1cccc(Nc2ccnc(Cl)n2)c1 [Compound 2, 2-Chloro-N-(3-chlorophenyl)pyrimidin-4-amine]	–
< 10 µM	C#Cc1cccc(Nc2nc(Nc3cccc(Cl)c3)nc3cc(OC)c(OC)cc23)c1 [Compound 20, N^2-(3-Chlorophenyl)-N^4-(3-ethynylphenyl)-6,7-dimethoxy quinazoline-2,4-diamine]	–
< 10 µM	C#Cc1cccc(Nc2ccnc(Nc3cccc(C#C)c3)n2)c1 [Compound 6, N^2,N^4-Bis(3-ethynylphenyl)pyrimidine-2,4-diamine]	growth-inhibitory activity (MTT), in words [1]: more potent anti-tumor activity than the mono-substituted pyrimidine derivatives
< 10 µM	C#Cc1cccc(Nc2nc(Nc3ccc(Cl)c(C(F)(F)F)c3)nc3cc(OC)c(OC)cc23)c1 [Compound 18, N^2-(4-Chloro-3-(trifluoromethyl)phenyl)-N^4-(3-ethynylphenyl)-6,7-dimethoxy-quinazoline-2,4-diamine]	–
< 10 µM	C#Cc1cccc(Nc2nc(Nc3cccc(NS(=O)(=O)c4ccc(C(F)(F)F)cc4Br)c3)nc3cc(OC)c(OC)cc23)c1 [Compound 32, 2-Bromo-N-(3-(4-(3-ethynylphenylamino)-6,7-dimethoxyquinazolin-2-ylamino)phenyl)-4-(trifluoromethyl)benzenesulfonamide]	–
10 to 20 µM	COc1cc2nc(Cl)nc(Nc3ccc(Oc4ccccc4)cc3)c2cc1OC [Compound 14, 2-Chloro-6,7-dimethoxy-N-(4-phenoxyphenyl)quinazoline-4-amine]	IC50 [1]: 15.3 ± 0.6 µM
10 to 20 µM	FC(F)(F)c1cc(Nc2ccnc(Nc3ccc(Cl)c(C(F)(F)F)c3)n2)ccc1Cl [Compound 7, N^2,N^4-Bis(4-chloro-3-(trifluoromethyl)phenyl)pyrimidine-2,4-diamine]	growth-inhibitory activity (MTT), in words [1]: more potent anti-tumor activity than the mono-substituted pyrimidine derivatives
